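Protocol summary: plate cells (96-well), add compound at 5 concentrations, incubate 48 h, interpolate endpoints linearly. TGI: concentration producing complete growth inhibition.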
Columns and labels:
Assay in all cases: NCI-60 cell line screen, 48 h
IGROV1 ovarian = test system: IGROV1 ovarian
SK-MEL-2 melanoma = test system: SK-MEL-2 melanoma
HOP-62 NSCLC = test system: HOP-62 NSCLC
EKVX NSCLC = test system: EKVX NSCLC
SF-295 CNS = test system: SF-295 CNS
OVCAR-4 ovarian = test system: OVCAR-4 ovarian
HOP-92 NSCLC = test system: HOP-92 NSCLC
HT29 colon = test system: HT29 colon
MALME-3M melanoma = test system: MALME-3M melanoma
HL-60(TB) leukemia = test system: HL-60(TB) leukemia
RPMI-8226 leukemia = test system: RPMI-8226 leukemia
OVCAR-5 ovarian = test system: OVCAR-5 ovarian
NCI/ADR-RES ovarian = test system: NCI/ADR-RES ovarian
SNB-19 CNS = test system: SNB-19 CNS
A498 renal = test system: A498 renal
U251 CNS = test system: U251 CNS
MDA-MB-231 breast = test system: MDA-MB-231 breast
MOLT-4 leukemia = test system: MOLT-4 leukemia
SK-MEL-5 melanoma = test system: SK-MEL-5 melanoma
PC-3 prostate = test system: PC-3 prostate

SMILES	TGI (IGROV1 ovarian) [µM]	TGI (SK-MEL-2 melanoma) [µM]	TGI (HOP-62 NSCLC) [µM]	TGI (EKVX NSCLC) [µM]	TGI (SF-295 CNS) [µM]	TGI (OVCAR-4 ovarian) [µM]	TGI (HOP-92 NSCLC) [µM]	TGI (HT29 colon) [µM]	TGI (MALME-3M melanoma) [µM]	TGI (HL-60(TB) leukemia) [µM]	TGI (RPMI-8226 leukemia) [µM]	TGI (OVCAR-5 ovarian) [µM]	TGI (NCI/ADR-RES ovarian) [µM]	TGI (SNB-19 CNS) [µM]	TGI (A498 renal) [µM]	TGI (U251 CNS) [µM]	TGI (MDA-MB-231 breast) [µM]	TGI (MOLT-4 leukemia) [µM]	TGI (SK-MEL-5 melanoma) [µM]	TGI (PC-3 prostate) [µM]
CC(=O)Nc1cc(C(=O)Nc2cc(C(=O)N3CC(CCl)c4c3cc(N)c3ccccc43)nn2C)nn1C (stereo not given)	0.851	0.427	> 100	1.15	4.41	0.677	0.1	1.21	0.267	< 0.0344	1.41	17.3	7.49	3.14	< 0.0197	0.856	0.76	0.0687	1.23	–
C[C@@H]1C[C@H]2[C@@H]3CCC4=CC(=O)C=C[C@]4(C)[C@@]3(Cl)[C@@H](Cl)C[C@]2(C)[C@@]1(O)C(=O)COP(=O)(O)O	> 100	> 100	> 100	> 100	> 100	> 100	> 100	> 100	> 100	–	> 100	> 100	–	> 100	> 100	> 100	> 100	> 100	> 100	> 100
CSc1nc2c(nc(C)c(=O)n2C2OCC(OC(C)=O)C(OC(C)=O)C2OC(C)=O)c(=O)[nH]1 (stereo not given)	> 100	> 100	> 100	> 100	> 100	> 100	> 100	> 100	> 100	> 100	> 100	> 100	–	> 100	> 100	> 100	–	> 100	> 100	–
Nc1nc(Cl)c(N)c(NC23CC4CC(CC(C4)C2)C3)n1	> 100	1.16	4.3	5.36	11.3	4.21	> 19.9	3.42	10.1	–	5.02	2.84	–	3.42	8.13	3.06	3.83	4.81	3.82	2.97
COc1cc(C[S+]2CCCC2)c(SC)cc1C[S+]1CCCC1	> 100	> 100	> 100	> 100	> 100	> 100	> 100	> 100	> 100	> 100	> 100	> 100	–	–	> 100	> 100	–	> 100	> 100	–
Cc1cc(C)c(S(=O)(=O)N2CCCN(S(=O)(=O)c3c(C)cc(C)cc3C)OCCCON(S(=O)(=O)c3c(C)cc(C)cc3C)CCCN(S(=O)(=O)c3c(C)cc(C)cc3C)OCCCO2)c(C)c1	> 100	> 100	> 100	> 100	> 100	> 100	> 100	> 100	> 100	> 100	> 100	> 100	> 100	> 100	–	> 100	> 100	> 100	> 100	> 100
Cc1cc(N(CCC#N)CCC#N)ccc1/C(N=Nc1ccc([N+](=O)[O-])cc1)=N\NC(=O)c1cc(Cl)ccc1C(=O)c1ccccc1	17.9	57.8	> 100	28.3	> 100	95	–	27.4	31.1	–	38.4	> 100	50.9	> 100	–	> 100	91	38.8	27.3	83.3
COc1ccc(N=C2SC(=N/N=c3\sc4ccccc4n3C)SC2=Nc2ccc(OC)cc2)cc1	> 100	> 100	> 100	> 100	> 100	–	> 100	> 100	> 100	–	> 100	> 100	> 100	> 100	–	> 100	66	> 100	> 100	> 100
O=C1OC[C@@H]2Cc3cc4c(cc3[C@H](c3ccc5c(c3)OCO5)[C@@H]12)OCO4	–	> 25	> 25	> 25	> 25	> 25	–	> 25	> 25	> 25	> 25	> 25	> 25	> 25	–	> 25	> 25	> 25	> 25	–
C[C@]12C=CC(=O)C=C1CC[C@H]1[C@@H]3C[C@@H](O)[C@](O)(C(=O)CO)[C@@]3(C)C[C@H](O)[C@@]12F	> 100	> 100	> 100	> 100	> 100	> 100	> 100	> 100	> 100	> 100	> 100	> 100	–	> 100	> 100	> 100	–	> 100	> 100	–
C=CCNC1=C2C[C@@H](C)C[C@@H](OC)[C@H](OC(=O)CCCCN)[C@H](C)/C=C(\C)[C@@H](OC(N)=O)[C@H](OC)/C=C\C=C(/C)C(=O)NC(=CC1=O)C2=O	28.6	9.98	18.5	26.9	29.9	30.8	35.7	14.8	19.6	30.3	35.1	34	> 100	23.8	25.9	22.8	27.7	52.9	25.5	–
COc1cc(Nc2cnc3cc(F)c(F)cc3n2)cc(OC)c1OC	> 100	> 100	> 100	> 100	> 100	> 100	> 100	> 100	> 100	> 100	–	> 100	> 100	> 100	> 100	> 100	–	> 100	> 100	> 100
CCn1c(-c2cc(OC)cc(OC)c2)nc2c1C(=O)c1ccccc1C2=O	> 100	–	> 100	> 100	> 100	> 100	> 100	> 100	> 100	> 100	> 100	> 100	> 100	> 100	–	> 100	> 100	> 100	> 100	> 100
CN(c1ccc(Cl)cc1)S(=O)(=O)c1ccc([N+](=O)[O-])cc1	> 100	> 100	> 100	> 100	> 100	> 100	–	> 100	> 100	> 100	> 100	> 100	> 100	> 100	–	> 100	> 100	> 100	> 100	> 100
COC(=O)Cc1cc(O)c(C/C=C(\C)CC/C=C(\C)C(O)C(=O)C=C(C)C)cc1O (stereo not given)	63	48.6	41.6	66.8	55.1	> 100	47.7	61.3	48.6	12	69.6	> 100	58.4	86	–	35.7	78.3	36.9	40.4	87.7
Cc1ccc(/C=N/n2c(=O)[nH]c3ccccc3c2=O)cc1	> 100	> 100	> 100	> 100	> 100	–	> 100	> 100	–	> 100	> 100	> 100	–	> 100	> 100	> 100	> 100	> 100	> 100	> 100
CC1CC(N)=Nc2ccccc2N1 (stereo not given)	> 100	> 100	> 100	> 100	> 100	> 100	–	> 100	> 100	> 100	> 100	> 100	> 100	> 100	–	> 100	> 100	> 100	> 100	> 100
N#C/C(C(=O)Nc1ccccc1)=C(/N)N1CCOCC1	> 100	> 100	> 100	> 100	> 100	–	> 100	–	–	–	> 100	> 100	> 100	> 100	> 100	> 100	–	> 100	> 100	> 100
CN(c1ccc(Cl)cc1)S(=O)(=O)c1cccc([N+](=O)[O-])c1	> 100	> 100	> 100	> 100	> 100	> 100	–	> 100	> 100	–	> 100	> 100	> 100	> 100	–	> 100	> 100	> 100	72.8	> 100
COc1cc(/C=C2\CCC(C)C3C2=NN(C(C)=O)C3c2cc(OC)c(OC)c(OC)c2)cc(OC)c1OC (stereo not given)	9.7	> 42.4	> 100	> 100	> 100	> 100	> 100	> 100	> 100	> 100	> 100	> 36.3	–	> 100	> 100	> 100	> 100	> 100	> 100	> 100
O=C(c1ccc(O)cc1)C1c2c3c(cc(O)c2C(c2ccc(O)cc2)C1c1cc(O)cc(O)c1)OC(c1ccc(O)cc1)C3c1cc2c(cc1O)OC(c1ccc(O)cc1)C2c1cc(O)cc(O)c1 (stereo not given)	–	> 12.5	> 12.5	> 12.5	–	> 12.5	> 12.5	–	> 12.5	> 12.5	> 12.5	> 12.5	–	> 12.5	> 12.5	> 12.5	–	> 12.5	> 12.5	–
O=S1(=O)OCCOS(=O)(=O)C1F	–	> 100	> 100	> 100	> 100	> 100	–	> 100	> 100	> 100	> 100	> 100	> 100	> 100	–	> 100	–	> 100	> 100	> 100
CNC(=S)N(C)C(=S)Nn1c(=O)c(C)nn(C)c1=S	> 100	–	> 100	> 100	> 100	> 100	> 100	> 100	–	> 100	> 100	> 100	–	> 100	> 100	> 100	–	> 100	> 100	–
S=C(NCc1ccccc1)c1nc[nH]c1C(=S)NCc1ccccc1	19.8	22.2	26.2	17	17.6	20	12.3	22.7	24.6	25.5	35.6	21.7	16.3	18.6	–	18.4	22.3	25.4	–	20.4
COc1ccc(C2S/C(=C\c3ccccc3O)C(=O)N2NC(=O)Cc2ccccc2)cc1 (stereo not given)	> 100	> 100	> 100	–	> 100	> 100	> 100	> 100	> 100	> 100	> 100	> 100	–	–	> 100	> 100	–	> 100	> 100	–

Reference: PubChem BioAssay (NCI)
